Test system: Mitochondria-located protein genes
Experiment: DNA chip mRNA expression in yeast, mitochondria-located protein genes (Table 2)
Assay type: cell-based, Saccharomyces cerevisiae S288C
Conditions: cells incubated two hours with the chemical substance
Summary of the method: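 First, S288C yeast grown in YPD at 25° C. are dosed in log phase with one toxicant (growth-inhibiting, not lethal) for 2 h. Next, total RNA is extracted and poly(A) mRNA isolated and reverse-transcribed with Cy3/Cy5-dUTP. Finally, whole-genome chip fluorescence is read relative to unexposed cells.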

With `C=CC=O` [(14), acrolein] the “The level of expressed mRNA in the presence of chemical substance/The level of expressed mRNA in the absence of chemical substance” value (yeast gene YAL039C) was 1.2, the “The level of expressed mRNA in the presence of chemical substance/The level of expressed mRNA in the absence of chemical substance” value (yeast gene YBL022C) was 1.0 and the “The level of expressed mRNA in the presence of chemical substance/The level of expressed mRNA in the absence of chemical substance” value (yeast gene YBL030C) was 0.8. The “The level of expressed mRNA in the presence of chemical substance/The level of expressed mRNA in the absence of chemical substance” value (yeast gene YBL038W) was 2.3, the “The level of expressed mRNA in the presence of chemical substance/The level of expressed mRNA in the absence of chemical substance” value (yeast gene YBL099W) was 0.6 and the “The level of expressed mRNA in the presence of chemical substance/The level of expressed mRNA in the absence of chemical substance” value (yeast gene YBR003W) was 0.8. The “The level of expressed mRNA in the presence of chemical substance/The level of expressed mRNA in the absence of chemical substance” value (yeast gene YBR044C) was 0.9, the “The level of expressed mRNA in the presence of chemical substance/The level of expressed mRNA in the absence of chemical substance” value (yeast gene YBR091C) was 1.7 and the “The level of expressed mRNA in the presence of chemical substance/The level of expressed mRNA in the absence of chemical substance” value (yeast gene YBR122C) was 1.2. The “The level of expressed mRNA in the presence of chemical substance/The level of expressed mRNA in the absence of chemical substance” value (yeast gene YBR185C) was 1.7, the “The level of expressed mRNA in the presence of chemical substance/The level of expressed mRNA in the absence of chemical substance” value (yeast gene YBR221C) was 0.8 and the “The level of expressed mRNA in the presence of chemical substance/The level of expressed mRNA in the absence of chemical substance” value (yeast gene YBR251W) was 1.6. For the same compound, the “The level of expressed mRNA in the presence of chemical substance/The level of expressed mRNA in the absence of chemical substance” value (yeast gene YBR282W) was 1.4, the “The level of expressed mRNA in the presence of chemical substance/The level of expressed mRNA in the absence of chemical substance” value (yeast gene YCL057W) was 1.0 and the “The level of expressed mRNA in the presence of chemical substance/The level of expressed mRNA in the absence of chemical substance” value (yeast gene YCR046C) was 1.3. The “The level of expressed mRNA in the presence of chemical substance/The level of expressed mRNA in the absence of chemical substance” value (yeast gene YCR083W) was 2.4, the “The level of expressed mRNA in the presence of chemical substance/The level of expressed mRNA in the absence of chemical substance” value (yeast gene YDL067C) was 1.4 and the “The level of expressed mRNA in the presence of chemical substance/The level of expressed mRNA in the absence of chemical substance” value (yeast gene YDL181W) was 1.1. The “The level of expressed mRNA in the presence of chemical substance/The level of expressed mRNA in the absence of chemical substance” value (yeast gene YDL198C) was 1.7, the “The level of expressed mRNA in the presence of chemical substance/The level of expressed mRNA in the absence of chemical substance” value (yeast gene YDR079W) was 1.5 and the “The level of expressed mRNA in the presence of chemical substance/The level of expressed mRNA in the absence of chemical substance” value (yeast gene YDR178W) was 1.5. For the same compound, the “The level of expressed mRNA in the presence of chemical substance/The level of expressed mRNA in the absence of chemical substance” value (yeast gene YDR231C) was 1.5, the “The level of expressed mRNA in the presence of chemical substance/The level of expressed mRNA in the absence of chemical substance” value (yeast gene YDR258C) was 1.5 and the “The level of expressed mRNA in the presence of chemical substance/The level of expressed mRNA in the absence of chemical substance” value (yeast gene YDR298C) was 1.5. For the same compound, the “The level of expressed mRNA in the presence of chemical substance/The level of expressed mRNA in the absence of chemical substance” value (yeast gene YDR347W) was 1.5, the “The level of expressed mRNA in the presence of chemical substance/The level of expressed mRNA in the absence of chemical substance” value (yeast gene YDR377W) was 1.4 and the “The level of expressed mRNA in the presence of chemical substance/The level of expressed mRNA in the absence of chemical substance” value (yeast gene YDR529C) was 1.5. For the same compound, the “The level of expressed mRNA in the presence of chemical substance/The level of expressed mRNA in the absence of chemical substance” value (yeast gene YEL024W) was 1.1, the “The level of expressed mRNA in the presence of chemical substance/The level of expressed mRNA in the absence of chemical substance” value (yeast gene YEL039C) was 1.4 and the “The level of expressed mRNA in the presence of chemical substance/The level of expressed mRNA in the absence of chemical substance” value (yeast gene YER178W) was 0.9. The “The level of expressed mRNA in the presence of chemical substance/The level of expressed mRNA in the absence of chemical substance” value (yeast gene YFL016C) was 0.8, the “The level of expressed mRNA in the presence of chemical substance/The level of expressed mRNA in the absence of chemical substance” value (yeast gene YGL018C) was 1.2 and the “The level of expressed mRNA in the presence of chemical substance/The level of expressed mRNA in the absence of chemical substance” value (yeast gene YGL187C) was 0.9. For the same compound, the “The level of expressed mRNA in the presence of chemical substance/The level of expressed mRNA in the absence of chemical substance” value (yeast gene YGL191W) was 1.6, the “The level of expressed mRNA in the presence of chemical substance/The level of expressed mRNA in the absence of chemical substance” value (yeast gene YGR008C) was 1.3 and the “The level of expressed mRNA in the presence of chemical substance/The level of expressed mRNA in the absence of chemical substance” value (yeast gene YGR028W) was 1.2. For the same compound, the “The level of expressed mRNA in the presence of chemical substance/The level of expressed mRNA in the absence of chemical substance” value (yeast gene YGR062C) was 1.2, the “The level of expressed mRNA in the presence of chemical substance/The level of expressed mRNA in the absence of chemical substance” value (yeast gene YGR076C) was 2.3 and the “The level of expressed mRNA in the presence of chemical substance/The level of expressed mRNA in the absence of chemical substance” value (yeast gene YGR082W) was 0.9. The “The level of expressed mRNA in the presence of chemical substance/The level of expressed mRNA in the absence of chemical substance” value (yeast gene YGR174C) was 1.6, the “The level of expressed mRNA in the presence of chemical substance/The level of expressed mRNA in the absence of chemical substance” value (yeast gene YGR244C) was 1.2 and the “The level of expressed mRNA in the presence of chemical substance/The level of expressed mRNA in the absence of chemical substance” value (yeast gene YHR008C) was 1.6. The “The level of expressed mRNA in the presence of chemical substance/The level of expressed mRNA in the absence of chemical substance” value (yeast gene YIL155C) was 1.3, the “The level of expressed mRNA in the presence of chemical substance/The level of expressed mRNA in the absence of chemical substance” value (yeast gene YJL096W) was 2.1 and the “The level of expressed mRNA in the presence of chemical substance/The level of expressed mRNA in the absence of chemical substance” value (yeast gene YJL102W) was 1.5. For the same compound, the “The level of expressed mRNA in the presence of chemical substance/The level of expressed mRNA in the absence of chemical substance” value (yeast gene YJL133W) was 0.7, the “The level of expressed mRNA in the presence of chemical substance/The level of expressed mRNA in the absence of chemical substance” value (yeast gene YJL166W) was 1.9 and the “The level of expressed mRNA in the presence of chemical substance/The level of expressed mRNA in the absence of chemical substance” value (yeast gene YJL180C) was 1.4. For the same compound, the “The level of expressed mRNA in the presence of chemical substance/The level of expressed mRNA in the absence of chemical substance” value (yeast gene YJR045C) was 0.5 and the “The level of expressed mRNA in the presence of chemical substance/The level of expressed mRNA in the absence of chemical substance” value (yeast gene YJR077C) was 0.7.

Reference: US8192962B2, “Processes for detecting toxic substances” (Daikin Industries, Ltd., priority 2001, dated 2012)
